Common to all, as to assay type: cell-based, human
One data set relates to OCT-1. The data set can be described thus: OCT-1 expression in HASMC by real time PCR and western blot. The conditions noted are these: for protein levels of OCT-1 (western blot): HASMC with suppressor, with or without oxLDL, FIGS. 23, 28. The procedure:
The following trials stress on the mechanism between let-7g, LOX-1, oxLDL and OCT-1. In FIG. 17, the expression of OCT-1 under various levels of oxLDL is shown. In the present embodiment, […], and then total RNA samples and protein samples of the HASMC are prepared and analyzed by the real time PCR and western blot assay of the present invention. Precisely, the preparation of the total RNA samples and the protein samples of the HASMC, also the PCR program and western blot assay are performed according to the above protocols. Moreover, a primer pair of OCT-1 set forth in SEQ ID NO. 19 and 20 is designed and used in real time PCR analysis, and a commercial OCT-1 antibody (Sigma-Aldrich Inc, MO, USA) is used in western blot assay.
In the present embodiment, primer pairs set forth in SEQ ID NO. 3, 4, 7, 8, 19, 20, the LOX-1 antibody, and the OCT-1 antibody are used respectively in PCR or western blot assay.
With reference to FIG. […] More specifically, […], such as 0, 25, 50, and 75 μg/ml, […] 2000, […] by real time PCR and western blot according to the protocols described above. Moreover, primer pairs set forth in SEQ ID NO. 19 and 20, and the OCT-1 antibody are used respectively in PCR or western blot analysis.
For orientation: In qPCR the cycle at which signal appears reflects the starting amount.

A further data set relates to let-7g. Description: let-7g expression in HASMC by northern blot and real time PCR. Particulars: HASMC treated with oxLDL plus suppressor; FIGS. 18, 21, 25. The procedure: In FIGS. 7 and 8, there is the relationship between oxLDL and let-7g in the HASMC. In the present embodiment, the HASMC are treated with various levels of oxLDL, for example 0, 20, 40 and 60 μg/ml, in order to monitor and to recorder the effect of oxLDL on let-7g. Similarly, the HASMC cell is grown in a 6-well plate till at a density of 2×10^5 cell/well, and then randomly assigned into plural groups with the treatment of 0, 20, 40 and 60 μg/ml oxLDL individually for 24 hours. Finally, total RNA samples of each group of HASMC are analyzed by northern blot and quantified real time PCR via above protocols. In the present embodiment, a primer pair of let-7g as set forth in SEQ ID NO: 7 and 8 is used in the teal time PCR analysis according to the same PCR program described above. Also, the northern blot of the present invention is determined by using a miRNA northern blot assay kit (Applied Biosystems, CA, USA). […]
(§1) In the present embodiment, the HASMCs are randomly assigned into four groups, including groups (O1), as a control; (O2), with treatment of oxLDL; (O3), with co-transfection of the OCT-1 shRNA; and (O4), with co-transfection of the OCT-1 shRNA and treatment of oxLDL, wherein total RNA samples and protein sample of those groups are extracted and analyzed by the real time PCR and the western blot of the present invention. […]

In another data set the test system is LOX-1. The data set can be described thus: LOX-1 expression in HASMC by real time PCR and western blot. The conditions noted are these: for oxLDL-induced LOX-1 expression (mRNA): HASMC treated with oxLDL plus suppressor, FIGS. 19, 22, 26; for protein levels of LOX-1 (western blot): HASMC with suppressor, with or without oxLDL, FIGS. 20, 23, 28. As for the experimental part:
With reference to FIG. 2, there center on the expression of oxLDL and LOX-1 in human aortic smooth muscle cells. In the present embodiment, a primary human aortic smooth muscle cells (HASMC) cell line purchased from Cascade Biologics (OR, USA) is prepared and treated with various levels of oxLDL. More specifically, the HASMC cell line is incubated in a commercial smooth muscle cell growth supplement (SMGS) medium (Cascade Biologics, OR, USA) at 37° C. in a humidified atmosphere of 95% air and 5% CO2.
In the present embodiment, the HASMC cell line is grown in a 6-well plate till at a density of 2×10^5 cell/well, and then randomly assigned into four groups. The four groups of HASMC are co-cultured with 0, 20, 40, and 60 μg/ml of oxLDL individually for 24 hours, followed by analyzing the gene expression of HASMC via real time polymerase chain reaction (PCR) and western blot. Total RNA samples of the four groups of HASMC are prepared by using a Trizol® reagent (Invitrogen, CA, USA), and further quantitatively confirmed by a spectrophotometer at A260/A280 readings. Then, cDNA samples of the four groups of HASMC are synthesized by using a random primer and a MultiScribe™ Reverse Transcriptase Kit (Applied Biosystems Inc, CA, USA). The cDNA samples of the four groups of HASMC are sequentially diluted in 2×SYBR Green PCR Master Mix (Applied Biosystems Inc, CA, USA) to carry out quantitative real time PCR analysis. In the present invention, a primer pair of LOX-1 is designed and used in the real time PCR analysis, wherein the primer pair of LOX-1 is set forth in SEQ ID NO. 3 and 4.
On the other hand, protein samples of the four groups of HASMC are prepared by harvesting the four groups of HASMC in RIPA buffer (Invitrogen, CA, USA) firstly and centrifuged at 4° C. 1,2000 rpm to obtain supernatants as total cell lysate of the four groups of HASMC. In the present embodiment, the four groups of protein lysate are denatured in a mixture of 2% SDS, 10 mM dithiothreitol, 60 mM Tris-HCl (pH6.8) and 0.1% bromphenol blue, and then analyzed by polyacrylamide/SDS gel. Data obtained from the polyacrylamide/SDS gel analysis are further transferred to PVDF membrane for western blot assay.
In FIG. 9, the expression of LOX-1 in HASMC under various levels of let-7g is monitored and reordered. […]
as §1

The test system of another data set is 3'UTR region of LOX-1. Description: LOX-1 3'UTR luciferase reporter assay in CRL-1999 cells. Particulars: groups U1 to U7, FIG. 12. An excerpt: Referring to FIGS. 10 and 11, the relationship between oxLDL, LOX-1 and let-7g is further identified. In the present invention, the 3′UTR region of LOX-1 is cloned into a commercial vector, preferably downstream of a reporter gene, such as a luciferase gene, for the sake of studying the effect of oxLDL and let-7g on LOX-1 by estimating the activity of the reporter gene. In the present embodiment, a pMIR-LOX-1-3UTR vector is obtained by PCR amplifying the 3′UTR region of LOX-1 in the chromosome DNA of HASMC with a primer pair set forth in SEQ ID NO. 9 and 10; and cloning the amplified 3′UTR region of LOX-1 into a pMIR-REpORT luciferase vector (Ambion Inc, TX, USA). Furthermore, the pMIR-LOX-1-3UTR vector of the present embodiment is transfected into a human smooth muscle cell line CRL-1999 purchased from ATCC (Manassas, Va., USA) by using lipofectamine 2000 (Invitrogen Inc, CA, USA). In the present embodiment, the CRL-1999 cell line of the present embodiment is incubated in F12K Kaighn's modification medium (GIBCO-BRL, MD, USA) with various levels of oxLDL and let-7g mimic, followed by analyzed the activity of luciferase by a Luciferase Assay System (Promega, WI, USA). […]
A general note: A reporter such as luciferase makes a cellular process visible.

Turning to `CC(=O)OCOC(=O)CN(CC(=O)OCOC(C)=O)c1ccc(C)cc1OCCOc1cc(C)ccc1N(CC(=O)OCOC(C)=O)CC(=O)OCOC(C)=O` [MAPTAM], the “oxLDL-induced OCT-1 expression (mRNA)” value in the data set with OCT-1 (HASMC treated with oxLDL plus MAPTAM, FIG. 27) is on record as “decreased”. For the same molecule, the “protein levels of OCT-1 (western blot)” value in the data set with OCT-1 was “significant decrease”. In addition, the “oxLDL-mediated inhibition on let-7g (relative let-7g levels)” value in the data set on let-7g is “decreased”. In the data set on LOX-1, the “oxLDL-induced LOX-1 expression (mRNA)” value is given as “decreased” and the “protein levels of LOX-1 (western blot)” value is listed as “significant decrease”.
On to `COc1ccc2c(c[n+](C)c3c4cc5c(cc4ccc23)OCO5)c1OC` [chelerythrine], for which the “protein levels of OCT-1 (western blot)” value with OCT-1 is listed as “significant decrease”. Besides, the “oxLDL-mediated inhibition on let-7g (relative let-7g levels)” value with let-7g is “inhibited”. Besides, in the data set on LOX-1, the “oxLDL-induced LOX-1 expression (mRNA)” value is given as “inhibited” and the “protein levels of LOX-1 (western blot)” value is “significant decrease”.
“let-7g: mature form of microRNA-let-7g, as set forth in SEQ ID NO. 2 (UGAGGUAGUAGUUUGUACAGUU; listed as RNA, chemistry not given here; listed as Homo sapiens)”: in the data set on 3'UTR region of LOX-1, the “luciferase activity, pMIR-LOX-1-3UTR versus pMIR-LOX-1 mutant 3'UTR” value is reported as “targets to the 3′UTR region of LOX-1 to suppress the expression of LOX-1”.

These data come from US8716256B2, “Method of therapy and diagnosis of atherosclerosis” (Kaoshiung Medical University, priority 2011, dated 2014).
